Data: patent publication US12384787B2, “Fused heterocyclic compounds and their use as pest control agents” (PI INDUSTRIES LTD., priority 2019, dated 2025)

Columns and labels:
Type in all cases: in vivo
Helicoverpa armigera = Helicoverpa armigera diet incorporation method; conditions: third instar larvae, 96 h after release, dead and moribund combined, compared to untreated control, read-out: Percent mortality
Method: Diet incorporation method was used, in which the required quantity of test compounds were weighed and dissolved in a surfactant solution, kept on vortex for 90 min for proper mixing, then was diluted with water to the desired test concentrations. The solutions were incorporated into semi-synthetic diet when the temperature reached approximately 50° C. in the bioassay containers. The diet and solution was stirred thoroughly for properly mixing and then left to cool for 30 min. The solidified diet was cut into equal pieces, and then each piece was transferred into one cell of the bio-assay trays. A single third starved instar larva was released into each of these cells of the bioassay trays and each tray was covered with a lid. The bio-assay trays were kept under laboratory conditions at a temperature of 25° C. and relative humidity of 70%. Observations on dead, moribund and alive larvae were recorded at 96 h after the release of the larvae. Percent mortality was calculated by combining dead and moribund larvae and comparing the result to the one of the untreated control.

Spodoptera litura = Spodoptera litura diet incorporation method; conditions: third instar larvae, 96 h after release, dead and moribund combined, compared to untreated control, read-out: Percent mortality
Method: Diet incorporation method was used, in which the required quantity of test compounds were weighed and dissolved in surfactant solution, kept on vortex for 90 min for proper mixing, then diluted with water to the desired test concentrations. The solutions were incorporated into semi-synthetic diet when the temperature reached approximately 50° C. in the bioassay containers. The diet and solution was stirred thoroughly for properly mixing and was left to cool for 30 min. The solidified diet was cut into equal pieces, and then each piece was transferred into one cell of the bio-assay trays. A single starved third instar larva was released into each of these cells of the bioassay trays and the tray was covered with a lid. The bio-assay trays were kept under laboratory conditions at a temperature of 25° C. and relative humidity of 70%. Observations on dead, moribund and alive larvae were recorded at 96 h after the release of the larvae. Percent mortality was calculated by combining dead and moribund larvae and comparing the result to the one of the untreated control.

Plutella xylostella = Plutella xylostella leaf dip method (cabbage leaves); conditions: foliar, second instar larvae, 72 h after release, dead and moribund combined, compared to untreated control, read-out: Percent mortality
Method: The leaf dip method was used for testing, wherein the required quantity of the compounds were weighed and dissolved in a surfactant solution, kept on a Vortex at 2000 rpm with zirconia beads for 90 min for proper mixing and then diluted with 0.01% Triton-X solution to the desired test concentration. Cabbage leaves were dipped in the solution for 10 seconds, shade dried for 20 min and then transferred to bioassay trays. A single second instar larva was released into each bioassay tray cell and the tray was covered with a lid. The bio-assay trays were kept under laboratory conditions at a temperature of 25° C. and relative humidity of 70%. Observations on dead, moribund and living larvae were recorded at 72 h after the release. Percent mortality was calculated by combining dead and moribund larvae and comparing the result to the one of the untreated control.

Myzus persicae = Myzus persicae leaf dip method (capsicum leaves); conditions: foliar, third instar nymphs, 72 h after release, dead and moribund combined, compared to untreated control, read-out: Percent mortality
Method: The leaf dip method was used for testing, wherein the required quantity of the test compounds were weighed and dissolved in a surfactant solution, kept on a Vortex at 2000 rpm with zirconia beads for 90 min for proper mixing and then diluted with 0.01% Triton-X solution to the desired test concentration. Capsicum leaves were dipped in the solution for 10 seconds, shade dried for 20 min and then the leaves were kept in glass units with the petiole dipped in water. Known numbers of third instar nymphs were released into the glass units and then kept in the plant growth chambers at a temperature of 25° C. and relative humidity of 70%. Observations on dead, moribund and living nymphs were recorded at 72 h after the release. Percent mortality was calculated by combining dead and moribund nymphs and comparing the result to the one of the untreated control. The compounds 9 14 16 22 23 50 71 104 and 131 were showing efficacy higher than 70 percent mortality @ 300 PPM.

SMILES | mortality at 300 ppm (Helicoverpa armigera) | mortality at 300 ppm (Spodoptera litura) | mortality at 300 ppm (Plutella xylostella) | mortality at 300 ppm (Myzus persicae)
CCS(=O)(=O)c1nn2c(C)cc(C)nc2c1-c1nc2cc(S(=O)(=O)C(F)(F)F)ccc2o1 [Compound 15, 2-(2-(Ethylsulfonyl)-5,7-dimethylpyrazolo[1,5-a]pyrimidin-3-yl)-5-((trifluoromethyl)sulfonyl)benzo[d]oxazole] | > 70% | > 70% | > 70% | –
CCS(=O)(=O)c1nn2c(-c3ccc(Cl)c(F)c3)ccnc2c1-c1nc2cc(C(F)(F)F)cnc2n1C [Compound 118, 2-(7-(4-Chloro-3-fluorophenyl)-2-(ethylsulfonyl)pyrazolo[1,5-a]pyrimidin-3-yl)-3-methyl-6-(trifluoromethyl)-3H-imidazo[4,5-b]pyridine] | > 70% | > 70% | > 70% | –
CCS(=O)(=O)c1nn2c(-c3ccc(Cl)cc3)ccnc2c1-c1nc2cc(C(F)(F)F)ncc2n1C [Compound 37, 2-(7-(4-Chlorophenyl)-2-(ethylsulfonyl)pyrazolo[1,5-a]pyrimidin-3-yl)-3-methyl-6-(trifluoromethyl)-3H-imidazo[4,5-c]pyridine] | – | > 70% | > 70% | –
CCS(=O)(=O)c1nn2c(-c3cc(F)cc(F)c3)ccnc2c1-c1nc2cc(C(F)(F)F)cnc2n1C [Compound 101, 2-(7-(3,5-Difluorophenyl)-2-(ethylsulfonyl)pyrazolo[1,5-a]pyrimidin-3-yl)-3-methyl-6-(trifluoromethyl)-3H-imidazo[4,5-b]pyridine] | > 70% | > 70% | > 70% | –
CCS(=O)(=O)c1nn2c(-c3cc(Cl)cc(Cl)c3)ccnc2c1-c1nc2cc(C(F)(F)F)cnc2n1C [Compound 26, 2-(7-(3,5-Dichlorophenyl)-2-(ethylsulfonyl)pyrazolo[1,5-a]pyrimidin-3-yl)-3-methyl-6-(trifluoromethyl)-3H-imidazo[4,5-b]pyridine] | > 70% | > 70% | > 70% | –
CCS(=O)(=O)c1nn2cccnc2c1-c1nc2cc(C(F)(F)F)cnc2n1C [Compound 16, 2-(2-(Ethylsulfonyl)pyrazolo[1,5-a]pyrimidin-3-yl)-3-methyl-6-(trifluoromethyl)-3H-imidazo[4,5-b]pyridine] | – | – | – | > 70%
CCS(=O)(=O)c1nn2c(-c3cc(F)cc(Cl)c3)ccnc2c1-c1nc2cc(C(F)(F)F)cnc2n1C [Compound 103, 2-(7-(3-Chloro-5-fluorophenyl)-2-(ethylsulfonyl)pyrazolo[1,5-a]pyrimidin-3-yl)-3-methyl-6-(trifluoromethyl)-3H-imidazo[4,5-b]pyridine] | > 70% | > 70% | > 70% | –
CCS(=O)(=O)c1nn2cccnc2c1-c1nc2cc(C(F)(F)F)ncc2n1C [Compound 23, 2-(2-(Ethylsulfonyl)pyrazolo[1,5-a]pyrimidin-3-yl)-3-methyl-6-(trifluoromethyl)-3H-imidazo[4,5-c]pyridine] | – | – | – | > 70%
CCS(=O)(=O)c1nn2c(-c3ccc(F)cc3)ccnc2c1-c1nc2cc(C(F)(F)F)cnc2n1C [Compound 25, 2-(2-(Ethylsulfonyl)-7-(4-fluorophenyl)pyrazolo[1,5-a]pyrimidin-3-yl)-3-methyl-6-(trifluoromethyl)-3H-imidazo[4,5-b]pyridine] | > 70% | > 70% | > 70% | –
CCSc1nn2cccnc2c1-c1nc2cc(C(F)(F)F)cnc2n1C [Compound 14, 2-(2-(Ethylthio)pyrazolo[1,5-a]pyrimidin-3-yl)-3-methyl-6-(trifluoromethyl)-3H-imidazo[4,5-b]pyridine] | – | – | – | > 70%
CCSc1nn2c(-c3cccc(C(F)(F)F)c3)ccnc2c1-c1nc2cc(C(F)(F)F)cnc2n1C [Compound 126, 2-(2-(Ethylthio)-7-(3-(trifluoromethyl)phenyl)pyrazolo[1,5-a]pyrimidin-3-yl)-3-methyl-6-(trifluoromethyl)-3H-imidazo[4,5-b]pyridine] | > 70% | > 70% | – | –
CCS(=O)(=O)c1nn2c(-c3cccc(C(F)(F)F)c3)ccnc2c1-c1nc2cc(C(F)(F)F)cnc2n1C [Compound 129, 2-(2-(ethylsulfonyl)-7-(3-(trifluoromethyl)phenyl)pyrazolo[1,5-a]pyrimidin-3-yl)-3-methyl-6-(trifluoromethyl)-3H-imidazo[4,5-b]pyridine] | – | > 70% | > 70% | –
CCSc1nn2c(-c3ccc(OC(F)(F)C(F)F)cc3)ccnc2c1-c1nc2cc(C(F)(F)F)ncc2n1C [Compound 93, 2-(2-(Ethylthio)-7-(4-(1,1,2,2-tetrafluoroethoxy)phenyl)pyrazolo[1,5-a]pyrimidin-3-yl)-3-methyl-6-(trifluoromethyl)-3H-imidazo[4,5-c]pyridine] | > 70% | > 70% | > 70% | –
CCS(=O)(=O)c1nn2cc(-c3ccc(OC(F)(F)F)cc3)cnc2c1-c1nc2cc(C(F)(F)F)cnc2n1C [Compound 83, 2-(2-(Ethylsulfonyl)-6-(4-(trifluoromethoxy)phenyl)pyrazolo[1,5-a]pyrimidin-3-yl)-3-methyl-6-(trifluoromethyl)-3H-imidazo[4,5-b]pyridine] | > 70% | > 70% | > 70% | –
CCSc1nn2c(-c3cccc(C(F)(F)F)c3)ccnc2c1-c1nc2cc(C(F)(F)F)ncc2n1C [Compound 134, 2-(2-(Ethylthio)-7-(3-(trifluoromethyl)phenyl)pyrazolo[1,5-a]pyrimidin-3-yl)-3-methyl-6-(trifluoromethyl)-3H-imidazo[4,5-c]pyridine] | – | > 70% | – | –
CCS(=O)(=O)c1nn2c(-c3ccc(OC(F)(F)C(F)F)cc3)ccnc2c1-c1nc2cc(C(F)(F)F)cnc2n1C [Compound 90, 2-(2-(Ethylsulfonyl)-7-(4-(1,1,2,2-tetrafluoroethoxy)phenyl)pyrazolo[1,5-a]pyrimidin-3-yl)-3-methyl-6-(trifluoromethyl)-3H-imidazo[4,5-b]pyridine] | > 70% | > 70% | > 70% | –
CCS(=O)(=O)c1nn2c(-c3ccc(Cl)cc3)ccnc2c1-c1nc2cc(C(F)(F)F)cnc2n1C [Compound 39, 2-(7-(4-Chlorophenyl)-2-(ethylsulfonyl)pyrazolo[1,5-a]pyrimidin-3-yl)-3-methyl-6-(trifluoromethyl)-3H-imidazo[4,5-b]pyridine] | > 70% | – | > 70% | –
CCS(=O)(=O)c1nn2c(-c3ccc(OC(F)(F)F)cc3)ccnc2c1-c1nc2cc(S(=O)(=O)C(F)(F)F)ccc2o1 [Compound 32, 2-(2-(Ethylsulfonyl)-7-(4-(trifluoromethoxy)phenyl)pyrazolo[1,5-a]pyrimidin-3-yl)-5-((trifluoromethyl)sulfonyl)benzo[d]oxazole] | > 70% | – | > 70% | –
CCS(=O)(=O)c1nn2c(-c3ccc(F)cc3)ccnc2c1-c1nc2cc(C(F)(F)F)ncc2n1C [Compound 21, 2-(2-(Ethylsulfonyl)-7-(4-fluorophenyl)pyrazolo[1,5-a]pyrimidin-3-yl)-3-methyl-6-(trifluoromethyl)-3H-imidazo[4,5-c]pyridine] | > 70% | > 70% | > 70% | –
CCSc1nn2c(-c3ccc(OC(F)(F)C(F)F)cc3)ccnc2c1-c1nc2cc(C(F)(F)F)cnc2n1C [Compound 87, 2-(2-(Ethylthio)-7-(4-(1,1,2,2-tetrafluoroethoxy)phenyl)pyrazolo[1,5-a]pyrimidin-3-yl)-3-methyl-6-(trifluoromethyl)-3H-imidazo[4,5-b]pyridine] | > 70% | > 70% | > 70% | –
